Assay results: publication PMC9034232 (RSC Advances, 2021)

Assays:
[1] = test system: influenza A/H1N1/WSN/33 virus; experiment: Anti-IAV activity assay; assay type: cell-based; conditions: 24 h, read-out: IC50 (anti-IAV activity)
[2] = in vitro; conditions: human

SMILES	IC50 [1]	CC50 [2]
Cc1cc(=O)c2c(o1)C[C@H](O)C[C@H]2O [Compound 9, (5R,7R)-5,7-dihydroxy-2-methyl-5,6,7,8-tetrahydro-4H-chromen-4-one]	16.1 µM	> 100 µM
Cc1cc(=O)c2c(o1)C[C@@H](O)C[C@H]2O [Compound 11, (5R,7S)-5,7-dihydroxy-2-methyl-5,6,7,8-tetrahydro-4H-chromen-4-one]	9 µM	> 100 µM
NC(=O)c1ncn([C@@H]2O[C@H](CO)[C@@H](O)[C@H]2O)n1 [Ribavirin, reference compound]	21.7 µM	> 100 µM
